Patent US20140213475A1, “METHODS OF DIAGNOSING CANCER USING EPIGENETIC BIOMARKERS” (University of Massachusetts, priority 2011, published 2014)

Tests used:
Sat II on Chromosome 1 = conditions: Ji et al., 1997; cited from earlier work
[1] = tested on: normal human fibroblasts (Tig-1); experiment: BMI-1/Ring1B (PRC1) CAP body formation in normal fibroblasts after treatment with DNA demethylating agent, immunofluorescence and 1q12 DNA FISH; format: cell-based; conditions: for number of CAP positive cells: 0.2 ug/ml added fresh daily
Excerpt: (§1) FIGS. 6A-6E. […] FIG. 6C is a photomicrograph showing that longer treatment (8 days total) results in aberrant expression of Sat II RNA from other loci that are not associated with BMI-1 bodies.
(§2) Importantly, aberrant Sat II RNA foci also appeared with longer term 5-aza-2d treatment, and importantly from sites distinct from 1q12 bearing the accumulated BMI-1 bodies (FIG. 6C). Aberrant Sat II expression was not seen in control or 1 day treated cells, was rare on day 3 and in ˜5-10% of cells by day 8. These findings reveal significant mechanistic insight into why PcG proteins so markedly accumulate at 1q12 in cancer but not normal cells, and provide important evidence of a link between two intensely studied areas of cancer epigenetics, DNA methylation and polycomb proteins.
(§3) Twenty two cell lines were examined in this study (list in Supplement), and grown in conditions recommended by suppliers (ATCC, Cambrex, and Coriell). 5-azacytidine (6 mM) and 5-aza-2′deoxycytidine (0.2 ug/ml) was added fresh daily to asynchronously growing cultures and refreshed every day. Our standard fixation protocols have been detailed previously (Johnson et al., 1991; Tam et al., 2002), and summarized in the Supplement. Human effusions were fixed as for cultured cells and tissue blocks were cryosectioned onto cold glass slides (HistoBond+), and stored at −80 briefly until fixation. Of four fixations tested (Supplement) the one that gave best results was brief triton extraction followed by paraformaldehyde fixation and storage in ETOH.
Simultaneous DNA/RNA and antibody detection: Most antibodies were used prior to RNA or DNA hybridization. Briefly, slides were incubated in the appropriate dilution of primary antibody in 1% BSA, 1xPBS and 1 U/ul RNasin, for 1 hour at 37 C. Slides were washed, and immunodetection was performed using 1:500 dilution of appropriately conjugated (Alexa 488 or Alexa 594, Invitrogen) secondary (anti-goat, mouse or rabbit) antibody, in 1×PBS with 1% BSA. The antibody signal is fixed in 4% paraformaldehyde for 10 min prior to hybridization (performed as detailed above), and all slides were counter stained with DAPI. Vectashield (Vector Labs) was used as mounting media for all fluorescence imaging.

[2] = tested on: normal human fibroblasts (Tig-1); experiment: Aberrant Sat II RNA foci in normal fibroblasts after treatment with DNA demethylating agent, RNA FISH; format: cell-based
Excerpt: as §1, §2, §3
Sat2-24 nt LNA was used for most images unless otherwise indicated. Several methods of Sat 2 probe labeling and detection were tested (see below). RNA-specific hybridization was carried out under non-denaturing conditions where the DNA was not accessible. Oligos were usually hybridized at 15% formamide conditions, but were also compared to higher stringency hybridizations at 40% and 50% formamide. […]

Question: What does the source list for `Nc1ncn([C@H]2C[C@H](O)[C@@H](CO)O2)c(=O)n1` [5-aza-2d, 5-aza-2′-deoxycytidine]?
Answer: demethylation of Sat II on Chromosome 1 (Sat II on Chromosome 1): effectively demethylate Sat II on Chromosome 1; number of CAP bodies per cell ([1]; Day 1 of treatment): ~2; number of CAP positive cells ([1]; Day 1 of treatment): 15%; number of CAP positive cells ([1]; Day 3 of treatment): 52%; number of CAP bodies per cell ([1]; Day 8 of treatment): ~4; number of CAP positive cells ([1]; Day 8 of treatment): 80%; aberrant Sat II expression (Sat II RNA foci) ([2]; 1 day treated cells): not seen; aberrant Sat II expression (Sat II RNA foci) ([2]; day 3 of treatment): rare; aberrant Sat II expression (Sat II RNA foci), cells positive ([2]; day 8 of treatment): 5-10 % of cells
